Test results reported in patent US5582814A, “1-(p-n-butylbenzyl) DTPA for magnetic resonance imaging” (Metasyn, Inc., priority 1994, dated 1996).

Tests used:
[1] = Relaxivity in rat liver cytosol; type: biochemical; conditions: 20 MHz, 37° C.; Gd(III) complexes in rat liver cytosol
Procedure: The relaxivity of the Gd(III) complexes in cytosol was measured at 37 ° C. using a Bruker 20MHz Minispec equipped with a variable temperature probe. The inversion-recovery pulse sequence with 10 data points was used for T1 measurements. 1/T1 relaxation rates of solutions with varying concentrations of the chelates (0.01-0.5 mM) were determined. The limiting slope of the 1/T1 vs concentration plot at low concentrations of the chelates in units of s^-1 mM^-1 was taken as the relaxivity (R1) of the chelate in cytosol.
Higher relaxivity values imply higher binding affinity to cytosolic proteins and/or greater relaxivity when bound.

[2] = Rat liver uptake of 153Gd-labeled chelates; type: in vivo, Sprague Dawley rat; conditions: 50 μmol/kg tail vein
Procedure: Un-anesthetized adult male Sprague Dawley rats (200-300 g) were injected in the tail vein with 50 μmol/kg of gadolinium chelate labeled with ^153 Gd. Rats (approx. 3 per time period) were euthanized by cervical dislocation (while anesthetized by CO2) at 1, 5 and 30 min. post-injection. The liver was analyzed for ^153 Gd concentration using a gamma counter. The percentage of the injected dose (% ID) in the liver was determined for each time point and the integrated area under the mean liver % ID time curve (AUC) was calculated.

[3] = 1/T1 relaxation rates of excised rat liver; type: in vivo, Sprague Dawley rat; conditions: 50 μmol/kg tail vein, 20 MHz, 37° C.
Procedure: Rats (approx. 3 per time period) were euthanized by cervical dislocation (while anesthetized by CO2) at 1, 5 and 30 min. post-injection. […] The percentage of the injected dose (% ID) in the liver was determined for each time point and the integrated area under the mean liver % ID time curve (AUC) was calculated.
For the 5 min. time period, the 1/T1 proton relaxation rate of the excised liver was measured at 20MHz and 37° C. as described above. Higher 1/T1 values are associated with greater MRI signal intensity on T1 -weighted images and are due to greater liver uptake of the agent and/or greater relaxivity in the microenvironments of the liver.

[4] = in vivo
Procedure: Anesthetized (pentobarbital, 35 mg/kg, ip.) adult rabbits (2.5-4 kg) were administered 50 μmol/kg of a ^153 Gd-labeled chelate (approximately30 μCi/kg) via a cannulated marginal ear vein. Rabbits (1 per compound) were positioned supine under a gamma camera set with a photo peak energy of 100 keV +/- 20% and equipped with a low energy parallel hole collimator. Immediately after chelate administration, dynamic planar whole body scintigraphy was performed every five minutes for at least one hour. Images were acquired in a 64×64 matrix, and region of interest (ROI) analysis was performed using the Image 1.52 software package (National Institutes of Health). Percent injected does (% ID) in the liver at 5 min. intervals was calculated by dividing the counts in the liver ROI by the total counts in the body.

[5] = Biliary excretion in monkeys; conditions: monkey, n = 2, 50 μmol/kg iv bolus
Procedure: Two adult male cynomolgus monkeys used for scintigraphic imaging were injected on different days with iv bolus of 50 μmol/kg of the chelates labeled with ^153 Gd (approximately 40 μCi/kg). Following completion of the imaging study, the animals were placed in metabolic cages and their total urine void and excreted feces were measured using a gamma counter at 24 and 48 hr post compound administration.

[6] = Liver and bile specificity relative to structurally similar contrast agents (summary statement); type: in vivo; conditions: relative to structurally similar contrast agents previously disclosed
Text: Thus, this invention provides a method for tissue-specific contrast enhancement of MR images of mammalian organs and tissues. In particular, the method allows for contrast enhancement of MR images of the hepatobiliary system. […] MS-264 can also be used for tissue-specific imaging of tumors and the blood pool.

Molecule | R1 in liver cytosol (relaxivity) [1] [s⁻¹ mM⁻¹] | Area under the % inj. dose in rat liver vs time curve (AUC) from 0 to 30 min [2] | 1/T1 of excised rat liver 5 min. post-inj. [3] [s⁻¹] | Area under the % inj. dose in rabbit liver vs time curve (AUC) from 0 to 30 min [4] | % of recovered activity in feces (biliary excretion) of monkeys over 48 hr [5] [%] | liver and bile specificity [6]
diethylenetriamine pentaacetic acid [DTPA] | 7.1 | 35 | 4.64 ± 0.16 | – | – | –
O=C(O)CN(CCN(CC(=O)O)CC(=O)O)CCN(CC(=O)O)C(COCc1ccccc1)C(=O)O (centres unmarked) [BOPTA] | 11.3 | – | – | – | – | –
CCc1ccc(CC(CN(CCN(CC(=O)O)CC(=O)O)CC(=O)O)N(CC(=O)O)CC(=O)O)cc1 (centres unmarked) [1-(p-ethylbenzyl)] | 16.4 | 469 | 12.3 ± 0.9 | 553 | 48 ± 10 | –
O=C(O)CN(CCN(CC(=O)O)CC(Cc1ccccc1)N(CC(=O)O)CC(=O)O)CC(=O)O (centres unmarked) [1-(benzyl)] | 11.7 | 213 | – | – | – | –
CCOc1ccc(C[C@@H](CN(CCN(CC(=O)O)CC(=O)O)CC(=O)O)N(CC(=O)O)CC(=O)O)cc1 [1-(p-ethoxybenzyl)] | 14.4 | 408 | 10.1 ± 1.5 | 480 | 35 ± 3 | –
CC(C)c1ccc(CC(CN(CCN(CC(=O)O)CC(=O)O)CC(=O)O)N(CC(=O)O)CC(=O)O)cc1 (centres unmarked) [1-(p-isopropylbenzyl)] | 18.7 | 400 | 10.9 ± 1.2 | 910 | – | –
Cc1ccc(CC(CN(CCN(CC(=O)O)CC(=O)O)CC(=O)O)N(CC(=O)O)CC(=O)O)c(C)c1 (centres unmarked) [1-(2,4-di-Me-benzyl)] | 15.3 | 404 | 10.2 ± 0.6 | – | – | –
O=C(O)CN(CCN(CC(=O)O)CC(CCc1ccccc1)N(CC(=O)O)CC(=O)O)CC(=O)O (centres unmarked) [1-(phenylethyl)] | 13.6 | – | – | – | – | –
gadolinium(III)-1-(p-n-butylbenzyl)diethylenetriamine pentaacetate dimeglumine salt [MS-264] | 23.8 | 491 | 14.6 ± 0.2 | 1120 | – | surprisingly superior liver and bile specificity
